Results from EP0414533A1, “Use of iodopropargyl esters of alpha-amino acid derivatives as antimicrobial agents” (ROHM AND HAAS COMPANY, priority 1989, dated 1991).
Values after ≈ are worked out from the molar mass of the structure shown. Like-named read-outs stand apart in the source and are kept apart here.

Legend:
Assay type in all cases: cell-based
COL = assay: In-vitro plant fungicide test; details: Table IVb, read-out: % Control at (ppm) indicated COL
[1] = tested on: Cochliobolus sativus (HEL); assay: In-vitro plant fungicide test; details: Bipolaris sorokiniana
MON = assay: In-vitro plant fungicide test; details: Table IVb, read-out: % Control at (ppm) indicated MON
[2] = tested on: Phytophthora capsici (PHY); assay: In-vitro plant fungicide test; details: Phytophthora capsici
Piricularia oryzae (PIR) = assay: microbe, parasite or virus in culture
Pythium ultimum (PYU) = assay: In-vitro plant fungicide test; details: Globisporangium ultimum
Septoria nodorum (SEP) = assay: In-vitro plant fungicide test; details: Parastagonospora nodorum
UST = assay: In-vitro plant fungicide test; details: Table IVb, read-out: % Control at (ppm) indicated UST
[3] = tested on: Xanthomonas campestris (XAN); assay: In-vitro plant fungicide test; design: inhibition of growth: concentration or dose not given beside the values; details: Xanthomonas campestris
THREE FUNGI = assay: MIC test against three fungi in Mycophile Broth, pH 5.0, read after 8 days (Table VII); details: 192 h, serial dilutions from 50 ppm, read after 8 days of incubation
[4] = Table IVb, read-out: % Control at (ppm) indicated XAN

CC(C)(C)OC(=O)NCC(=O)OCC#CI [Compound 1, N-t-butoxycarbonylglycine iodopropargyl ester]
inhibition of growth at 1.5 ppm (COL; 1.5 ppm): 0%
inhibition of growth at 3 ppm (COL; 3 ppm): 0%
inhibition of growth at 6 ppm (COL; 6 ppm): 0%
inhibition of growth at 12 ppm (COL; 12 ppm): 95%
inhibition of growth at 25 ppm (COL; 25 ppm): 95%
inhibition of growth at 0.2 ppm (COL; .2 ppm): 0%
inhibition of growth at 0.4 ppm (COL; .4 ppm): 0%
inhibition of growth at 0.8 ppm (COL; .8 ppm): 0%
inhibition of growth at 1.5 ppm ([1]; 1.5 ppm, Table IVb, read-out: % Control at (ppm) indicated HEL): 0%
inhibition of growth at 6 ppm ([1]; 6 ppm, Table IVb, read-out: % Control at (ppm) indicated HEL): 75%
inhibition of growth at 25 ppm ([1]; Table IVa, *=Phytotoxic, read-out: % Control at 25 ppm HEL): 100%
inhibition of growth at 25 ppm ([1]; Table IVb, read-out: % Control at (ppm) indicated HEL): 100%
inhibition of growth at 0.2 ppm ([1]; .2 ppm, Table IVb, read-out: % Control at (ppm) indicated HEL): 0%
inhibition of growth at 0.4 ppm ([1]; .4 ppm, Table IVb, read-out: % Control at (ppm) indicated HEL): 0%
inhibition of growth at 0.8 ppm ([1]; .8 ppm, Table IVb, read-out: % Control at (ppm) indicated HEL): 0%
inhibition of growth at 1.5 ppm (MON; 1.5 ppm): 75%
inhibition of growth at 6 ppm (MON; 6 ppm): 100%
inhibition of growth at 25 ppm (MON; 25 ppm): 100%
inhibition of growth at 0.2 ppm (MON; .2 ppm): 0%
inhibition of growth at 0.4 ppm (MON; .4 ppm): 0%
inhibition of growth at 0.8 ppm (MON; .8 ppm): 0%
inhibition of growth at 1.5 ppm ([2]; 1.5 ppm, Table IVb, read-out: % Control at (ppm) indicated PHY): 50%
inhibition of growth at 6 ppm ([2]; 6 ppm, Table IVb, read-out: % Control at (ppm) indicated PHY): 100%
inhibition of growth at 25 ppm ([2]; Table IVa, read-out: % Control at 25 ppm PHY): 100%
inhibition of growth at 25 ppm ([2]; Table IVb, read-out: % Control at (ppm) indicated PHY): 100%
inhibition of growth at 0.2 ppm ([2]; .2 ppm, Table IVb, read-out: % Control at (ppm) indicated PHY): 0%
inhibition of growth at 0.4 ppm ([2]; .4 ppm, Table IVb, read-out: % Control at (ppm) indicated PHY): 0%
inhibition of growth at 0.8 ppm ([2]; .8 ppm, Table IVb, read-out: % Control at (ppm) indicated PHY): 0%
inhibition of growth at 1.5 ppm (Piricularia oryzae (PIR); 1.5 ppm, read-out: % Control at (ppm) indicated PIR): 50%
inhibition of growth at 6 ppm (Piricularia oryzae (PIR); 6 ppm, read-out: % Control at (ppm) indicated PIR): 100%
inhibition of growth at 25 ppm (Piricularia oryzae (PIR); 25 ppm, read-out: % Control at (ppm) indicated PIR): 100%
inhibition of growth at 0.2 ppm (Piricularia oryzae (PIR); .2 ppm, read-out: % Control at (ppm) indicated PIR): 0%
inhibition of growth at 0.4 ppm (Piricularia oryzae (PIR); .4 ppm, read-out: % Control at (ppm) indicated PIR): 0%
inhibition of growth at 0.8 ppm (Piricularia oryzae (PIR); .8 ppm, read-out: % Control at (ppm) indicated PIR): 0%
inhibition of growth at 25 ppm (Piricularia oryzae (PIR); read-out: % Control at 25 ppm PIR): 100%
inhibition of growth at 1.5 ppm (Pythium ultimum (PYU); 1.5 ppm, Table IVb, read-out: % Control at (ppm) indicated PYU): 100%
inhibition of growth at 6 ppm (Pythium ultimum (PYU); 6 ppm, Table IVb, read-out: % Control at (ppm) indicated PYU): 100%
inhibition of growth at 25 ppm (Pythium ultimum (PYU); Table IVa, read-out: % Control at 25 ppm PYU): 100%
inhibition of growth at 25 ppm (Pythium ultimum (PYU); Table IVb, read-out: % Control at (ppm) indicated PYU): 100%
inhibition of growth at 0.2 ppm (Pythium ultimum (PYU); .2 ppm, Table IVb, read-out: % Control at (ppm) indicated PYU): 0%
inhibition of growth at 0.4 ppm (Pythium ultimum (PYU); .4 ppm, Table IVb, read-out: % Control at (ppm) indicated PYU): 0%
inhibition of growth at 0.8 ppm (Pythium ultimum (PYU); .8 ppm, Table IVb, read-out: % Control at (ppm) indicated PYU): 0%
inhibition of growth at 1.5 ppm (Septoria nodorum (SEP); 1.5 ppm, Table IVb, read-out: % Control at (ppm) indicated SEP): 0%
inhibition of growth at 6 ppm (Septoria nodorum (SEP); 6 ppm, Table IVb, read-out: % Control at (ppm) indicated SEP): 100%
inhibition of growth at 25 ppm (Septoria nodorum (SEP); Table IVa, read-out: % Control at 25 ppm SEP): 100%
inhibition of growth at 25 ppm (Septoria nodorum (SEP); Table IVb, read-out: % Control at (ppm) indicated SEP): 100%
inhibition of growth at 0.2 ppm (Septoria nodorum (SEP); .2 ppm, Table IVb, read-out: % Control at (ppm) indicated SEP): 0%
inhibition of growth at 0.4 ppm (Septoria nodorum (SEP); .4 ppm, Table IVb, read-out: % Control at (ppm) indicated SEP): 0%
inhibition of growth at 0.8 ppm (Septoria nodorum (SEP); .8 ppm, Table IVb, read-out: % Control at (ppm) indicated SEP): 0%
inhibition of growth at 1.5 ppm (UST; 1.5 ppm): 100%
inhibition of growth at 3 ppm (UST; 3 ppm): 100%
inhibition of growth at 6 ppm (UST; 6 ppm): 100%
inhibition of growth at 12 ppm (UST; 12 ppm): 100%
inhibition of growth at 25 ppm (UST; 25 ppm): 100%
inhibition of growth at 0.2 ppm (UST; .2 ppm): 0%
inhibition of growth at 0.4 ppm (UST; .4 ppm): 0%
inhibition of growth at 0.8 ppm (UST; .8 ppm): 50%
inhibition of growth at 1.5 ppm ([3]; 1.5 ppm, Table IVb, read-out: % Control at (ppm) indicated XAN): 0%
inhibition of growth at 3 ppm ([3]; 3 ppm, Table IVb, read-out: % Control at (ppm) indicated XAN): 0%
inhibition of growth at 6 ppm ([3]; 6 ppm, Table IVb, read-out: % Control at (ppm) indicated XAN): 0%
inhibition of growth at 25 ppm ([3]; Table IVa, read-out: % Control at 25 ppm XAN): 0%
inhibition of growth at 25 ppm [3, 4]: 0%
inhibition of growth at 0.2 ppm ([3]; .2 ppm, Table IVb, read-out: % Control at (ppm) indicated XAN): 0%
inhibition of growth at 0.4 ppm ([3]; .4 ppm, Table IVb, read-out: % Control at (ppm) indicated XAN): 0%
inhibition of growth at 0.8 ppm ([3]; .8 ppm, Table IVb, read-out: % Control at (ppm) indicated XAN): 0%
inhibition of growth [3, 4]: 0%
MIC (THREE FUNGI; Aspergillus niger, read-out: MIC ANIG): 3.2 µg/mL (≈ 9.44 µM)
MIC (THREE FUNGI; Aureobasidium pullulans, read-out: MIC APUL): 12.5 µg/mL (≈ 36.9 µM)
MIC (THREE FUNGI; Gloeophyllum trabeum, read-out: MIC GTRA): 1.6 µg/mL (≈ 4.72 µM)
